{"source": "patent US20230128194A1", "about": "“METHODS AND COMPOSITIONS TO ALTER HEPATIC GABA RELEASE TO TREAT OBESITY-RELATED CONDITIONS” (ARIZONA BOARD OF REGENTS ON BEHALF OF THE UNIVERSITY OF …, priority 2017, published 2023)", "assay_type_in_all_cases": "in vivo, mouse", "key": {"lean mice": {"tested_on": "lean mice", "test": "GABA-T inhibitors (8 mg/day oral gavage) in lean mice: glucose homeostasis", "method": "(§1) All animal studies were conducted using male wildtype C57BL/6J mice purchased from Jackson Laboratories or bred in-house (Bar Harbor, Me.). Mice were kept on a 14-hour light/10-hour dark schedule and housed 3-5 mice per cage until 1 week prior to study initiation, at which point animals were individually housed. Studies were conducted in lean chow fed mice (7013 NIH-31, Teklad WI, 3.1 kcal/g, 18% kcal from fat, 59% kcal from carbohydrate, 23% kcal from protein) at 12-16 weeks of age. Studies in diet-induced obese mice dosed intraperitoneally with GABA transaminase inhibitors, mice treated with ethanolamine-O-sulfate in their drinking water, and mice treated with GABA-T targeted or scramble control antisense oligonucleotides (ASO) were performed after 8-10 weeks on a high fat diet (TD 06414, Teklad WI, 5.1 kcal/g, 60.3% kcal from fat, 21.3% kcal from carbohydrate, 18.4% kcal from protein; 20-26 weeks of age). For ASO studies, mice were stratified by body weight and assigned to an injection treatment (control or GABA-T). Studies in obese vagotomy and sham mice were performed after 9 weeks of high fat diet feeding. Unless fasted, mice had ad libitum access to food and water. All studies were approved by The University of Arizona Institutional Animal Care and Use Committee.\n(§2) Wildtype lean and obese mice were randomly divided into treatment groups and dosed daily with 8 mg of ethanolamine-O-sulfate (EOS; Sigma-Aldrich, St. Louis, Mo.), vigabatrin (United States Pharmacopeia, Rockville, Md.) or PBS. Obese sham and vagotomy mice were dosed daily with 8 mg of EOS. In all cases, basal bleeds were taken prior to initiation of an ITT. Lean mice received treatment by oral gavage (0.3 mL/mouse) while obese mice were treated by intraperitoneal injection (0.3 mL/mouse). Pre-treatment studies were conducted in the week immediately prior to beginning drug administration. Daily doses took place at 9 am each day and oral glucose tolerance tests (OGTT) and insulin tolerance tests (ITT) were performed on the third and fourth days of treatment in lean mice, respectively. In wildtype obese mice, OGTT and ITT were performed on the fourth day of treatment in separate cohorts. On the fifth day of treatment, 2DG clearance studies were performed. In sham/vagotomy mice, OGTT and ITT were performed on the fourth and fifth day of treatment, respectively. After a 2-week washout period without treatment injection, a basal bleed and bleed 15 minutes after an oral glucose gavage ([…]) to determine oral glucose stimulated insulin secretion were performed.\n(§3) Oral glucose (2.5 g/kg; 0.1 mL/10 g body weight; Chem-Impex Int'l Inc., Wood Dale, Ill.) was given to 4 hour fasted individually housed mice. All glucose tolerance tests began at […] and glucose was measured in whole blood, collected from the tail vein, by glucometer (Manufacture #D2ASCCONKIT, Bayer, Leverkusen, Germany) at 0, 15, 30, 60, 90, and 120 minutes after glucose gavage. Blood for serum insulin (oral glucose stimulated insulin secretion; OGSIS) and glucose determination was collected from the tail vein 15 minutes following glucose administration.\n(§4) Intraperitoneal insulin (0.5 U/kg; 0.1 mL/10 g body weight; Sigma Aldrich, St. Louis, Mo.) was given to 4 hour fasted individually housed mice. All insulin tolerance tests began at […] and glucose was measured in whole blood, collected from the tail vein, by glucometer (Manufacture #D2ASCCONKIT, Bayer, Leverkusen, Germany) at 0, 30, 60, 90, and 120 minutes after insulin injection.\n(§5) Within 2 hours of collection, blood was left to clot at room temperature for 20 minutes. Thereafter, the blood was centrifuged at 3,000×g for 30 minutes at 4° C. and serum was collected. Serum was stored at −80° C. until metabolite and hormone analyses. A colorimetric assay was used to analyze serum glucose (Cat. #G7519, Pointe Scientific Inc., Canton Mich.). Serum insulin was analyzed by enzyme-linked immunosorbent assay (ELISA; Cat. #80-INSMSU-E01,E10, Alpco, Salem, N.H.). […]"}, "diet-induced obese mice [1]": {"tested_on": "diet-induced obese mice", "test": "EOS in drinking water (3 g/L) in obese mice: glucose homeostasis, body mass", "method": "In a separate set of studies, an ITT was performed in obese mice to establish insulin resistance. Subsequently, EOS was provided ad libitum in the water (3 g/L) for 4 days. An OGTT and ITT were performed on days 3 and 4 of treatment, respectively. The water was then removed, and an ITT was performed 2 weeks later to establish the timing of restoration of insulin resistance after drug removal.\nas §3, §4"}, "[2]": {"tested_on": "high fat diet-induced obese mice", "test": "GABA-T inhibitors (8 mg/day IP) in HFD-induced obese mice: body weight, serum insulin/glucose/glucagon, OGTT, ITT", "method": "as §1, §2, §3, §4, §5"}, "diet-induced obese mice [3]": {"tested_on": "diet-induced obese mice", "test": "body composition by EchoMRI in EOS treated mice", "details": "3 g/L in drinking water, day 7 vs day 0", "method": "Body composition was assessed in diet-induced obese mice on day 0 and 7 days after continuous provision of EOS in the drinking water (3 g/L) using an EchoMRI 900 with A10 insert for mice. Calibration was performed daily and had the water stage set to on."}, "[4]": {"tested_on": "high fat diet-induced obese mice", "test": "tissue specific 3H-2-deoxy-D-glucose uptake after oral glucose gavage", "details": "day 5, vs saline", "method": "On the fifth day of EOS or PBS treatment 3H-2-deoxy-D-glucose (2DG; 10 uCi/mouse; PerkinElmer, Waltham, Mass.) was given to 4-hour fasted individually housed mice. Studies were performed in 2 cohorts on 2 different days. 2DG was given by oral gavage in a solution of glucose (2.5 g/kg) and each mouse received the same dose based off the average body weight for their cohort (0.1 mL/10 g body weight). Mice were anesthetized by isoflurane and sacrificed by cervical dislocation 45 minutes following oral gavage. Liver, soleus, quadriceps femoris, and gonadal white adipose tissue were collected, weighed, and dissolved overnight in 1N NaOH (0.5 mL/50 mg tissue) at 55° C. on a shaker plate. 0.5 mL of dissolved tissue was added to 5 mL of scintillation cocktail (Ultima Gold, PerkinElmer, Waltham, Mass.) and disintegrations per minute (DPM) were measured using a LS 6500 Multipurpose Scintillation Counter (Beckman Coulter, Brea, Calif.). DPM/g tissue weight was determined for each tissue and normalized based on a correction factor calculated by the average total DPM/g for all tissues divided by the total DPM/g for all tissues of the individual mouse."}, "[5]": {"details": "8 mg/day IP, four days, relative to pre-treatment"}}, "data": [{"smiles": "NCCOS(=O)(=O)O", "note": "[EOS, ethanolamine-O-sulfate]", "values": [{"measurement": "serum glucose", "setting": "lean mice", "value": "decreased"}, {"measurement": "glucose tolerance", "setting": "lean mice; 8 mg/day", "value": "no effect"}, {"measurement": "insulin sensitivity", "setting": "lean mice; 8 mg/day", "value": "no effect"}, {"measurement": "serum insulin concentrations", "setting": "lean mice; 8 mg/day", "value": "no effect"}, {"measurement": "glucose homeostasis", "setting": "lean mice; acute", "value": "does not alter"}, {"measurement": "response after withdrawal", "setting": "diet-induced obese mice [1]; 2 weeks without EOS in the drinking water", "value": "washed out"}, {"measurement": "body mass", "setting": "diet-induced obese mice [1]; diet-induced obese mice, 3 g/L in drinking water, 7 weeks", "value": "dramatically decreased"}, {"measurement": "measures of glucose homeostasis", "setting": "diet-induced obese mice [1]; obese mice, 3 g/L in drinking water, 4 days", "value": "similarly improved"}, {"measurement": "glucose:insulin ratio", "setting": "[2]; [5]", "value": "increased"}, {"measurement": "serum glucose", "setting": "[2]; [5]", "value": "decreased"}, {"measurement": "serum insulin", "setting": "[2]; [5]", "value": "decreased"}, {"measurement": "body weight", "setting": "[2]; 8 mg/day IP, through 5 days, vs saline injected mice", "value": "remained similar"}, {"measurement": "serum glucagon", "setting": "[2]; 5 days, relative to control mice", "value": "decreased"}, {"measurement": "glucose stimulated serum insulin", "setting": "[2]; treatment day 4, relative to pre-treatment", "value": "tended to be decreased"}, {"measurement": "glucose stimulated serum insulin after washout", "setting": "[2]; two-weeks washout", "value": "markedly increased"}, {"measurement": "serum insulin and glucose:insulin ratio after washout", "setting": "[2]; two-weeks washout", "value": "return of serum insulin and the glucose:insulin ratio to pre-treatment levels"}, {"measurement": "insulin sensitivity assessed by insulin tolerance test (ITT)", "setting": "[2]; within 4 days of initiating treatment", "value": "improved"}, {"measurement": "decrease of fat mass", "setting": "diet-induced obese mice [3]", "value": 16.27, "unit": "%"}, {"measurement": "decrease of lean mass", "setting": "diet-induced obese mice [3]", "value": 6.15, "unit": "%"}, {"measurement": "decrease of total body mass", "setting": "diet-induced obese mice [3]", "value": 10, "unit": "%"}, {"measurement": "2DG clearance by gonadal white adipose tissue", "setting": "[4]", "value": "did not affect"}, {"measurement": "2DG clearance by the quadriceps femoris", "setting": "[4]", "value": "did not affect"}, {"measurement": "increase of 2DG uptake by the soleus", "setting": "[4]", "value": 22, "unit": "%"}]}]}
